The record followed here is patent US7094909B2, “HIV protease inhibitors, compositions containing the same, their pharmaceutical uses and materials for their synthesis” (priority 2001, dated 2006).

In assay [1] the test system is HIV-1 NL4-3 or HIV-1 NL4-3(I84V/L90M). The assay is described as follows: Susceptibility assay, p24 ELISA in infected MT-2 cells. In kind it is cell-based. Conditions: Human immunodeficiency virus 1, NL43, MT2, read-out: EC50 or IC50 (mM), values without asterisk (EC50). Here is the method:
T-cell lines, CEM-SS, and MT-2, and viruses HIV-1 RF and HIV-1 NL4-3 (pNL4-3) were obtained from the National Institutes of Health (AIDS Research and Reference Reagent Program, Bethesda, Md.).
Compounds were tested in phenotypic susceptibility assays at Virologic, Inc., (See Petropoulos C. J., Parkin N. T., Limoli K. L., Lie Y. S., Wrin T., Huang W., Tian H., Smith D., Winslow G. A., Capon D J, Whitcomb J M. 2000, “A novel phenotypic drug susceptibility assay for human immunodeficiency virus type 1,” Antimicrob Agents Chemother 44(4):920–928) or using the assay described here. MT-2 cells were infected with either HIV-1 NL4-3 or HIV-1 NL4-3([…]) and incubated in the presence of serial 0.5 log dilutions of test compounds. Three days later, culture supernatants were collected and virus production, as determined by p24 ELISA, was assayed. Percent inhibition was calculated as p24 concentration in compound-treated samples as compared to infected, compound-free controls. Inhibition of viral replication is determined by measuring reduction in HIV p24 present in the culture supernatant, using a Beckman-Coulter p24HIV-1 Ag EIA kit and following the supplied protocol. Absorbance is read on a MRX microplate reader (Dynex Technologies). The EC50 was calculated as the concentration of compound that effected a decrease in the p24 production by infected, compound-treated cells to 50% of that produced by infected, compound-free cells.
For orientation: In an ELISA, binding on a coated surface is turned into a signal by an enzyme label.

Assay [2] concerns the target T1, HIV-1 protease (Q7S mutant form) (Human immunodeficiency virus type 1 group M subtype B, UniProt P04585, Q495S).
T1 construct: made in house
The assay is described as follows: HIV-1 Protease RET assay. As to conditions: Ave. Ki (nM), RET assay, Q7S enzyme, Morrison tight binding fit. In kind it is biochemical. Summed up:
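Ki values fitted with the Morrison tight-binding equation from steady-state RET cleavage (ex 340, em 490 nm) of 5 μM RE(EDANS)SQNYPIVQK(DABCYL)R. Buffer pH 4.8 acetate, 1M NaCl, 5 mM DTT, 1 mg/ml BSA, 10% DMSO; 2 nM Q7S mutant dimer, 37 °C, 12 min.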

The test system of assay [3] is HIV-1 (HIV-1 RF, HIV-1 NL4-3) in CEM-SS / MT-2 cells. The assay is described as follows: Cytopathic effect (CPE) inhibition assay (XTT/MTT dye reduction). In kind it is cell-based. Conditions: for pEC50: Human immunodeficiency virus 1, NL43, read-out: Ave CPE EC50. Summed up: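 Readout is XTT reduction (A450, 4 h) after six days of culturing virus-infected (moi 0.025–0.819) or mock-infected CEM-SS/MT-2 cells, 2×10^4 per well, with half-log compound series. Antiviral EC50 and cytotoxic CC50 are relative to uninfected compound-free cells. Therapeutic index is CC50 divided by EC50.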
(Damage to the host cells serves as the signal in cytopathic effect assays.)

Molecules are shown by their SMILES. pEC50: −log10 of the molar value. Like-named read-outs stand apart in the source and are kept apart here.

One may read the EC50 as the midpoint of the concentration-response curve. The Ki is a dissociation constant, usually derived from enzyme kinetics or from competition with a known ligand. By pEC50 is commonly meant the EC50 on a negative log10 scale, so that one unit is a factor of ten. With `Cc1ccc(F)cc1CNC(=O)[C@@H]1CC(F)(F)CN1C(=O)[C@@H](O)[C@H](Cc1ccccc1)NC(=O)c1cccc(O)c1C` [Example C6, (S)-4,4-Difluoro-1-((2S,3S)-2-hydroxy-3-{[1-(3-hydroxy-2-methyl-phenyl)-methanoyl]-amino}-4-phenyl-butanoyl)-pyrrolidine-2-carboxylic acid 5-fluoro-2-methyl-benzylamide], the EC50 in assay [1] was 1.94 µM. The compound further returned a Ki in assay [2] of 2.4 nM. In addition, the pEC50 in assay [3] is 6.13.

As to `Cc1c(O)cccc1C(=O)N[C@@H](Cc1ccccc1)[C@H](O)C(=O)N1CSC(C)(C)[C@H]1C(=O)N[C@H]1CCc2cc(F)ccc21` [Example A56, (R)-3-((2S,3S)-2-Hydroxy-3-{[1-(3-hydroxy-2-methyl-phenyl)-methanoyl]-amino}-4-phenyl-butanoyl)-5,5-dimethyl-thiazolidine-4-carboxylic acid ((S)-5-fluoro-indan-1-yl)-amide], the EC50 in assay [1] stood at 0.378 µM. Besides, the Ki in assay [2] is 0.27 nM. The pEC50 in assay [3] was 7.38.

As to `C#CCNC(=O)[C@H]1N(C(=O)[C@@H](O)[C@H](Cc2ccccc2)NC(=O)c2cccc(O)c2C)CC(F)(F)C1(C)C` [Example C17, (S)-4,4-Difluoro-1-[(2S,3S)-2-hydroxy-3-(3-hydroxy-2-methyl-benzoylamino)-4-phenyl-butyryl]-3,3-dimethyl-pyrrolidine-2-carboxylic acid prop-2-ynylamide], the EC50 in assay [1] amounted to 0.186 µM. The compound also returned a Ki in assay [2] of under 0.1 nM. In addition, the pEC50 in assay [3] was 6.94.

As for `Cc1ccccc1CNC(=O)[C@H]1N(C(=O)[C@@H](O)[C@H](Cc2ccccc2)NC(=O)c2cccc(O)c2C)CSC12CCCC2` [Example C30, 3-(2-Hydroxy-3-{[1-(3-hydroxy-2-methyl-phenyl)-methanoyl]-amino}-4-phenyl-butanoyl)-1-thia-3-aza-spiro [4.4]nonane-4-carboxylic acid 2-methyl-benzamide], the 50% effective concentration (EC50) in assay [1] stood at 0.273 µM. The compound also came in with a Ki in assay [2] of under 0.1 nM. In addition, the pEC50 in assay [3] was 7.74.

Consider `Cc1ccccc1CNC(=O)[C@@H]1CC(F)(F)CN1C(=O)[C@@H](O)[C@H](Cc1ccccc1)NC(=O)c1cccc(O)c1C` [Example C1, (S)-4,4-Difluoro-1-[(2S,3S)-2-hydroxy-3-(3-hydroxy-2-methyl-benzoylamino)-4-phenyl-butyryl]-pyrrolidine-2-carboxylic acid 2-methyl-benzylamide], for which the EC50 in assay [1] came to 0.427 µM; in assay [3] (Human immunodeficiency virus 1, NL43, read-out: Ave CPE EC50 (mM)) it was 0.627 µM. Further, the affinity in assay [2], expressed as Ki, was 0.38 nM.

Take `Cc1c(O)cccc1C(=O)N[C@@H](Cc1ccccc1)[C@H](O)C(=O)N1CSC(C)(C)[C@H]1C(=O)NCc1ccoc1` [Example A45, (R)-3-((2S,3S)-2-Hydroxy-3-{[1-(3-hydroxy-2-methyl-phenyl)-methanoyl]-amino}-4-phenyl-butanoyl)-5,5-dimethyl-thiazolidine-4-carboxylic acid (furan-3-ylmethyl)-amide]: the EC50 in assay [1] was determined as 0.048 µM. Also, in assay [2], the inhibition constant (Ki) is under 0.1 nM. The pEC50 in assay [3] was 7.47.

`Cc1c(O)cccc1C(=O)N[C@@H](Cc1ccccc1)[C@H](O)C(=O)N1CSC(C)(C)[C@H]1C(=O)NCc1ccc2c(c1)CCO2` [Example A9, (R)-3-((2S,3S)-2-Hydroxy-3-{[1-(3-hydroxy-2-methyl-phenyl)-methanoyl]-amino}-4-phenyl-butanoyl)-5,5-dimethyl-thiazolidine-4-carboxylic acid (2,3-dihydro-benzofuran-5-ylmethyl)-amide]: in assay [1], the EC50 came to 1.08 µM. The compound further returned a Ki in assay [2] of 0.49 nM. Also, the pEC50 in assay [3] is 6.86.

As for `Cc1c(O)cccc1C(=O)N[C@@H](Cc1ccccc1)[C@H](O)C(=O)N1CSC2(CCCC2)[C@H]1C(=O)N[C@H]1CCCc2ccccc21` [Example C37, (R)-3-((2S,3S)-2-Hydroxy-3-{[1-(3-hydroxy-2-methyl-phenyl)-methanoyl]-amino}-4-phenyl-butanoyl)-1-thia-3-aza-spiro[4.4]nonane-4-carboxylic acid (1,2,3,4-tetrahydro-naphthalen-1-yl)-amide], the EC50 in assay [1] was found to be 1.29 µM. In addition, the Ki in assay [2] amounted to 0.61 nM. In assay [3], the pEC50 is 7.57.

Consider `Cc1ccc(F)cc1CNC(=O)[C@H]1N(C(=O)[C@@H](O)[C@H](Cc2ccccc2)NC(=O)c2cccc(O)c2C)CSC12CCCC2` [Example C36, (R)-3-((2S,3S)-2-Hydroxy-3-{[1-(3-hydroxy-2-methyl-phenyl)-methanoyl]-amino}-4-phenyl-butanoyl)-1-thia-3-aza-spiro[4.4]nonane-4-carboxylic acid 5-fluoro-2-methyl-benzylamide], for which the EC50 in assay [1] came to 0.666 µM. For the same compound, the Ki in assay [2] is under 0.1 nM. Moreover, the pEC50 in assay [3] is 7.30.

As to `Cc1c(O)cccc1C(=O)N[C@@H](Cc1ccccc1)[C@H](O)C(=O)N1CSC2(CCCCC2)[C@H]1C(=O)N[C@@H]1C=CCCC1` [Example B84, (R)-3-((2S,3S)-2-Hydroxy-3-{[1-(3-hydroxy-2-methyl-phenyl)-methanoyl]-amino}-4-phenyl-butanoyl)-1-thia-3-aza-spiro[4.5]decane-4-carboxylic acid (S)-cyclohex-2-enylamide], the EC50 in assay [1] was determined as 0.686 µM. The compound also returned an inhibitory constant (Ki) in assay [2] of under 0.1 nM. Further, the pEC50 in assay [3] is 8.05.

As for `Cc1c(O)cccc1C(=O)N[C@@H](Cc1ccccc1)[C@H](O)C(=O)N1CC(F)(F)C(C)(C)[C@H]1C(=O)NCc1ccc2c(c1)OCO2` [Example C26, (S)-4,4-Difluoro-1-[(2S,3S)-2-hydroxy-3-(3-hydroxy-2-methyl-benzoylamino)-4-phenyl-butyryl]-3,3-dimethyl-pyrrolidine-2-carboxylic acid (1,3-benzodioxol-5-ylmethyl)-amide], the EC50 in assay [1] is 0.131 µM. Moreover, the inhibitory constant (Ki) in assay [2] is under 0.1 nM. Also, the pEC50 in assay [3] is 7.12.

Turning to `Cc1c(O)cccc1C(=O)N[C@@H](Cc1ccccc1)[C@H](O)C(=O)N1CC(F)(F)C(C)(C)[C@H]1C(=O)NCC(F)(F)F` [Example C23, (S)-4,4-Difluoro-1-[(2S,3S)-2-hydroxy-3-(3-hydroxy-2-methyl-benzoylamino)-4-phenyl-butyryl]-3,3-dimethyl-pyrrolidine-2-carboxylic acid (2,2,2-trifluoro-ethyl)-amide], in assay [1], the EC50 stood at 0.109 µM. Besides, the Ki in assay [2] was under 0.1 nM. For the same compound, the pEC50 in assay [3] was 7.43.

On to `Cc1ccccc1CNC(=O)[C@H]1N(C(=O)[C@@H](O)[C@H](Cc2ccccc2)NC(=O)c2cccc(O)c2C)CSC12CCC2` [Example C32, 7-(2-Hydroxy-3-{[1-(3-hydroxy-2-methyl-phenyl)-methanoyl]-amino}-4-phenyl-butanoyl)-5-thia-7-aza-spiro[3.4]octane-8-carboxylic acid-2-methyl benzylamide], for which the EC50 in assay [1] stood at 0.19 µM. This compound also yielded a Ki in assay [2] of under 0.1 nM. Further, the pEC50 in assay [3] is 8.05.

With `Cc1ccccc1CNC(=O)[C@H]1N(C(=O)[C@@H](O)[C@H](Cc2ccccc2)NC(=O)c2cccc(O)c2C)CC(F)(F)C1(C)C` [Example C15, (S)-4,4-Difluoro-1-[(2S,3S)-2-hydroxy-3-(3-hydroxy-2-methyl-benzoylamino)-4-phenyl-butyryl]-3,3-dimethyl-pyrrolidine-2-carboxylic acid 2-methyl-benzylamide], the EC50 in assay [1] turned out to be 0.057 µM. The compound also registered an inhibition constant Ki in assay [2] of under 0.1 nM. Besides, in assay [3], the pEC50 is 7.60.

For `COc1ccc(CNC(=O)[C@H]2N(C(=O)[C@@H](O)[C@H](Cc3ccccc3)NC(=O)c3cccc(O)c3C)CC(F)(F)C2(C)C)cc1` [Example C25, (S)-4,4-Difluoro-1-[(2S,3S)-2-hydroxy-3-(3-hydroxy-2-methyl-benzoylamino)-4-phenyl-butyryl]-3,3-dimethyl-pyrrolidine-2-carboxylic acid 4-methoxy-benzylamide], the EC50 in assay [1] stood at 0.068 µM. In assay [2], this compound yielded an inhibitory constant (Ki) of under 0.1 nM. In assay [3], the pEC50 was 7.51.

In the case of `C=CCOC(=O)N[C@@H](Cc1ccccc1)[C@H](O)C(=O)N1CSC(C)(C)[C@H]1C(=O)NCc1ccccc1C` [Example B11, {(1S,2S)-1-Benzyl-3-[(R)-5,5-dimethyl-4-(2-methyl-benzylcarbamoyl)-thiazolidin-3-yl]-2-hydroxy-3-oxo-propyl}-carbamic acid allyl ester], the EC50 in assay [1] was 2.02 µM. This compound came in with a Ki in assay [2] of 0.86 nM. In addition, the pEC50 in assay [3] is 6.25.
